# Data from US11903386B2, “Strigolactone analogs and their usage in plant control” (King Abdullah University of Science and Technology, priority 2016, dated 2024).
# “Also recorded” adds a separate entry of the source.
# How the values were obtained:
# [1] = Chemical stability of MPs in aqueous solution, monitored by HPLC; format: physicochemical; conditions: aqueous solution pH 6.8, 21° C., monitored at 24 h intervals up to 3 weeks
# Method: Aqueous solutions of MPs (50 μg ml-1; pH 6.8) were incubated at 21° C. in amber HPLC vials. For sample preparation, 50 μl of an acetone solution (1 mg ml-1) was diluted to the final concentration with methanol (425 μl), water (500 μl) and 25 μl of 1-Indanol (1.0 mg ml-1 solution in acetone) as internal standard. […] The column was operated at 35° C. with a flow rate of 0.25 ml per min. Compounds eluted from the column were detected with a Diode array detector. Relative quantity of remaining (non-degraded) product was determined by comparison to the internal standard.
# S. hermonthica seeds = experiment: Striga hermonthica seed germination bioassay; format: in vivo; conditions: comparison between compounds
# Method: Parasitic weed seeds (S. hermonthica and P. ramosa) germination activity was recorded as described previously (Jamil et al., 2012). Six pre-conditioned seed discs were placed in a 90 mm petri-dish containing a filter paper ring wetted with 0.9 ml sterile MilliQ water. […] GR24 solutions with equal concentrations and sterile MilliQ water were included as a positive and negative control, respectively. After application, seeds were incubated at 30° C./25° C. in the dark for two days. Germination (seeds with radical emerging through seed coat) was scored under a binocular microscope, and germination rate (%) was calculated. Statistical analyses were carried out using statistical software package R (version 3.2.2). Dose-response curves and Half Maximum Effective Concentrations (EC50) were calculated to determine optimum amount of MPs. Synthetic strigolactone analog GR24 was used as reference to estimate efficacy of selected compounds. EC50 and estimated response were calculated using drc package (https://cran.r390 project.org/web/packages/drc/) with a Four Parameter Logistic Curve (Dose Response Curve) (Ritz and Streibig, 2005).
# [2] = test system: rice seedlings (Shiokari, d3, d10); experiment: Growth and fresh biomass of hydroponically grown rice seedlings; format: in vivo; conditions: 2.5 μM, twice a week for three weeks
# Method: Rice seeds (WT, d3, d10) were surface-sterilized by washing with 70% ethanol for 1 min and then with 2.5% sodium hypochlorite for 15 min. Seeds were then rinsed thoroughly with sterile MilliQ water and incubated in water for 2 days at 30° C. in the dark. Pre-germinated seeds were transferred to filter papers containing ½ strength MS medium in 90 mm petri dishes and incubated at 30° C. under fluorescent white light (130-180 μM m^−2 s^−1) for one week. Seven day-old seedlings were transferred to 50 ml falcon tubes (one seedling per tube) containing modified half-strength Hoagland nutrient solution and grown in greenhouse. Plants were treated with MPs at 2.5 μM-2.5×10-7 μM, using GR24 as positive control. The compounds were applied six times, twice a week. Number of tillers per plant, plant height and fresh biomass were measured at final harvest.
# Arabidopsis seedlings [3] = experiment: Arabidopsis hypocotyl elongation assay; format: in vivo; conditions: 1.0 μM
# Method: Sterilized Arabidopsis seeds were sown on half strength MS (with 0.5% sucrose+1% agar, 0.5 g L-1 MES, pH 5.7) plates supplemented with MPs or GR24 (at 1.0 μM). Plates were stored at 4° C. in darkness for 3 days. To initiate germination, plates were exposed to continuous white light for 24 h then transferred to continuous monochromatic red light (160 Lux, 22° C.) conditions for another 4 days. For hypocotyl length measurement, at least 30 seedlings were measured using the publically available ImageJ software (http://rsbweb.nih.gov/ij/) after taking digital photographs. Monochromatic red light source was applied as described previously (Wu and Yang, 2010). Light flow rates were measured using a Li250 quantum photometer (Li-Cor, Lincoln, NE, USA).
# Arabidopsis seedlings [4] = experiment: Arabidopsis lateral root density and primary root length; format: in vivo; conditions: 1.0 μM, 8 days old seedlings
# Method: Sterilized Arabidopsis seeds were sown on half strength MS (with 0.5% sucrose+1% agar, 0.5 g L^−1 MES, pH 5.7) plates supplemented with GR24 or MPs (at 1.0 μM). Plates were stored at 4° C. in darkness for 3 days and then vertically grown at 22° C. in Percival incubator under long day condition (16 h at 22° C./8 h at 16° C. day/night, 60% relative humidity, 4000-5000 LUX white light) for 8 days. For determining the effect on lateral root density and primary root length, at least 30 seedlings were measured using publically available ImageJ software (http://rsbweb.nih.gov/ij/) after scanning roots.
# P. ramosa seeds = experiment: P. ramosa seed germination bioassay; format: in vivo; conditions: 1.0 μM
# Method: Parasitic weed seeds (S. hermonthica and P. ramosa) germination activity was recorded as described previously (Jamil et al., 2012). Six pre-conditioned seed discs were placed in a 90 mm petri-dish containing a filter paper ring wetted with 0.9 ml sterile MilliQ water. […] GR24 solutions with equal concentrations and sterile MilliQ water were included as a positive and negative control, respectively. After application, seeds were incubated at 30° C./25° C. in the dark for two days. Germination (seeds with radical emerging through seed coat) was scored under a binocular microscope, and germination rate (%) was calculated.
# S. hermonthica = conditions: in vivo; cited from earlier work
structure (smiles),measurement,setting,value
CC1=CC(O/C=C2/C(=O)OCc3ccccc32)OC1=O (centres unmarked) [MP5],Stability in comparison to GR24,[1],more stable than GR24; also recorded: the most stable compound
COC(=O)/C(=C/OC1C=C(C)C(=O)O1)c1ccc(OC)cc1 (centres unmarked) [MP14],Stability in comparison to GR24,[1],very similar to that of GR24
COC(=O)/C(=C/OC1C=C(C)C(=O)O1)c1ccccc1Cl (centres unmarked) [MP9],Relative activity in inducing S. hermonthica seed germination,S. hermonthica seeds,followed by MP9
same,Stability in comparison to GR24,[1],very similar to that of GR24
same,"Growth, senescence symptoms and biomass of rice seedlings",[2],stunted the growth and caused senescence symptoms
"CC1=CC(O/C=C(/C=O)c2ccc([N+](=O)[O-])cc2)OC1=O (racemic) [MP12, (E)-3-(4-methyl-5-oxo-2,5-dihydrofuran-2-yloxy)-2-(4-nitrophenyl)acrylaldehyde]",Inhibition of hypocotyl growth,Arabidopsis seedlings [3],"Apart from MP12 and MP15, all MPs showed significant inhibition"
same,Stability in comparison to GR24,[1],not detectable even after only 24 h
COC(=O)/C(=C/OC1C=C(C)C(=O)O1)c1cccc(Cl)c1 (centres unmarked) [MP8],Reduction of number of lateral roots / lateral root density,Arabidopsis seedlings [4],slightly more active than GR24
same,P. ramosa seed germination activity,P. ramosa seeds,much higher activity
same,Stability in comparison to GR24,[1],very similar to that of GR24
CC1=CC(O/C=C(C)\C=C\C2=C(C)CCCC2(C)C)OC1=O (centres unmarked) [Carlactone],Activity in S. hermonthica seed germination,S. hermonthica,considerable activity
